Measurements from patent US20230190870A1, “Method for Treating Lysosomal Storage Diseases with Histatin Peptides” (THE BOARD OF TRUSTEES OF THE UNIVERSITY OF ILLINOIS, priority 2020, published 2023).
Square brackets hold non-standard residues; d marks the D form. Peptide text beside a SMILES is read from it. pS = N[C@@H](COP(=O)(O)O)C(=O)O

What was measured:
[1] = molecular target: T1, Synthetic TMEM97 (108-176) (Homo sapiens, UniProt Q5BJF2); assay: Surface plasmon resonance, immobilized synthetic TMEM97 (108-176); type: binding; conditions: SPR
T1 construct: Three peptides, TMEM97 (108-176), TMEM97 (108-143) and TMEM97 (144-176), were synthesized; made in house; host or cells: chemical solid-phase synthesis (Fmoc, Wang resin)
Protocol: Surface Plasmon Resonance (SPR). Recombinant full-length TMEM97 (also called MAC30, from HEK293 cells) and GST-TMEM97 (108-176, recombinant GST-C terminal from wheat germ) proteins were purchased from OriGene (Rockville, Md.) and Abnova (Taipei City, Taiwan), respectively. Three peptides, TMEM97 (108-176), TMEM97 (108-143) and TMEM97 (144-176), were synthesized. All proteins and peptides were initially prepared in HBS buffer containing 10 mM HEPES, pH 7.4, 150 mM NaCl, and 0.05% surfactant P20. The CM5 sensor surface was first activated by 1-ethyl-3-(3-dimethylaminopropyl) carbodiimide hydrochloride (EDC)/N-hydroxy succinimide (NHS) mixture using a Biacore T200 or Biacore 8K instrument (GE Healthcare). […] Flow channels 1 and 3 were used as references.
The three synthesized peptides were diluted to 50 μg/mL in 10 mM sodium acetate at pH 4.0 and immobilized to flow channels 2, 3 and 4, respectively, on another sensor chip. The unmodified surfaces on a flow channel 1 were used as a reference control. Histatin solutions with a series of increasing concentrations (0.78-25 μM at 2-fold dilution) were applied to all four channels at a 30 μL/minute flow rate at 25° C. The data were double-referenced with reference channel and zero concentration responses, and reference subtracted sensorgrams were fitted with 1 to 1 Langmuir kinetic model using a Biacore T200 evaluation software V3.0 or Insight evaluation software. The equilibrium dissociation constants ([…]) were determined from two rate constants (KD=kd/ka).
To determine more precisely which segment of TMEM97 is necessary for binding of Hst1, multiple synthetic fragments of TMEM97 were generated (Table 6) and binding to Hst1 was tested using SPR. […] Smaller fragments of the C-terminal of TMEM97 were then constructed to represent the (predicted) luminal (108-143) and cytoplasmic (144-176) exposed segments of the C-terminus of TMEM97 based on modeling experiments previously described. […] SPR results for Hst1 were confirmed using ITC as an orthogonal analytical method.
To determine the region(s) of Hst1 that mediate binding to TMEM97, SPR testing was performed with various Hst1 fragments and either recombinant TMEM97 (GST-tagged, wheat-germ derived, C-terminal fragment TMEM97 (108-176)) or synthesized TMEM97 (TMEM97 (108-176), TMEM97 (108-143) and TMEM97 (144-176)).

TMEM97 = TMEM97 (Homo sapiens, UniProt Q5BJF2); assay: Co-immunoprecipitation / western blot in HCE cells; type: binding; parameters: endogenous in cells; host or cells: HCE cells; conditions: 20 μM Hst1 for 6 hours, IP TMEM97 antibody
Protocol: Immunoprecipitation/Western Blot Analysis. The day before, HCE cells were plated at the concentration of 5×10^6 cells/well in a 100 mm dish and were treated with 20 μM of Hst1 for 6 hours. Cells were harvested with lysis buffer (1% NP40, 137 mM sodium chloride, 20 mM Tris [pH 8.0], and 10% glycerol) and the lysates were incubated with 5 μL of a validated rabbit polyclonal anti-TMEM97 antibody (Novus Bio.; Littleton, Colo.) overnight at 4° C. The lysates were incubated with 30 μL of a suspension of protein A/G (Santa Cruz Biotechnology; Dallas, Tex.) for 2 hours at 4° C. with gentle shaking. After centrifugation for 5 minutes, pellets were washed three times and resuspended in 50 μL of 2×NUPAGE® LDS sample buffer (Invitrogen; Carlsbad, Calif.) and boiled for 10 minutes.
For detecting Hst1 bound to TMEM97 protein, the lysates were subjected to electrophoresis on 12% NUPAGE® Bis-Tris gels (Invitrogen; Carlsbad, Calif.), followed by transfer to nitrocellulose membranes (Amersham Protran, GE Healthcare; Pittsburgh, Pa.). Membranes were then blocked with Tris-buffered saline containing 3% nonfat dry milk for 1 hour and incubated with rabbit primary antibody against Hst1 (Mybiosource; San Diego, Calif.) (1:1000) overnight at 4° C. […]

T1 sequence (Q5BJF2 108-176): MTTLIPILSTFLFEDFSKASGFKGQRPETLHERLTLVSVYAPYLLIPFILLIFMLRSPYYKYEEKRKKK
TMEM97, sequence (Q5BJF2 whole entry): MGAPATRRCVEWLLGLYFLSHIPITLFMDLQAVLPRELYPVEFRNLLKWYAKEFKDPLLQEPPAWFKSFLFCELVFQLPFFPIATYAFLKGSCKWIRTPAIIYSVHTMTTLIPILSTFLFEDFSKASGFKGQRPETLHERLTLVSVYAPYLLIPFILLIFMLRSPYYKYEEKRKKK

`CC(C)C[C@H](NC(=O)[C@H](Cc1ccc(O)cc1)NC(=O)[C@H](CC(N)=O)NC(=O)[C@H](CO)NC(=O)CNC(=O)[C@H](Cc1ccc(O)cc1)NC(=O)[C@H](CC(=O)O)NC(=O)CNC(=O)[C@H](Cc1ccc(O)cc1)NC(=O)[C@H](Cc1ccccc1)NC(=O)[C@@H]1CCCN1C(=O)[C@H](Cc1ccccc1)NC(=O)[C@H](CCC(=O)O)NC(=O)[C@H](CCCNC(=N)N)NC(=O)[C@H](Cc1c[nH]cn1)NC(=O)[C@H](CO)NC(=O)[C@H](Cc1c[nH]cn1)NC(=O)[C@H](Cc1c[nH]cn1)NC(=O)[C@H](CCCCN)NC(=O)[C@H](CCC(=O)O)NC(=O)[C@H](Cc1c[nH]cn1)NC(=O)[C@H](Cc1ccccc1)NC(=O)[C@H](CCCCN)NC(=O)[C@H](CCCNC(=N)N)NC(=O)[C@H](CCCNC(=N)N)NC(=O)[C@H](Cc1ccc(O)cc1)NC(=O)CNC(=O)[C@H](Cc1c[nH]cn1)NC(=O)[C@H](Cc1c[nH]cn1)NC(=O)[C@H](CCCNC(=N)N)NC(=O)[C@H](CCCCN)NC(=O)[C@H](CCC(=O)O)NC(=O)[C@H](Cc1c[nH]cn1)NC(=O)[C@H](COP(=O)(O)O)NC(=O)[C@@H](N)CC(=O)O)C(=O)N[C@@H](Cc1ccc(O)cc1)C(=O)N[C@@H](CC(=O)O)C(=O)N[C@@H](CC(N)=O)C(=O)O` [Hst1] (H-D[pS]HEKRHHGYRRKFHEKHHSHREFPFYGDYGSNYLYDN-OH; N-terminus and C-terminus assumed) was tested. Which “% Rmax” value [1] did it give?
Its value is 38%.

What about the Kd [1] of the same compound?
The Kd was 2400 nM.

What about the “% Rmax” value ([1]; listed as Hst1(1-38)) of the same compound?
The value was “(% Rmax = 23%)”.

What about the “co-precipitation with TMEM97” value (TMEM97) of the same compound?
Its value is “co-precipitated with TMEM97”.
